Read-outs that look alike come from different tables or passages of the source. Blank lines part the entries; values can stand above or below the compound they belong to. Where a SMILES comes first, the peptide text is derived from it. Bridges are numbered along the chain shown (N, C = ends). Primed or numbered codes have the meaning given here. [ ]: non-standard residue; d: D form. The star is where a group is joined. X2 = O=C(O)c1cc(C(=O)*)ccc1-c1c2ccc(=O)cc-2oc2cc(O)ccc12; PEG12 = NCCOCCOCCOCCOCCOCCOCCOCCOCCOCCOCCOCCOCCC(=O)O; NMePhe(3-Cl) = CN[C@@H](Cc1cccc(Cl)c1)C(=O)O; NMeW = CN[C@@H](Cc1c[nH]c2ccccc12)C(=O)O; NMeY = CN[C@@H](Cc1ccc(O)cc1)C(=O)O; PEG11′ = not defined here
Target: transferrin receptor (hTfR) (Homo sapiens, UniProt P02786)
Sequence (P02786 whole entry): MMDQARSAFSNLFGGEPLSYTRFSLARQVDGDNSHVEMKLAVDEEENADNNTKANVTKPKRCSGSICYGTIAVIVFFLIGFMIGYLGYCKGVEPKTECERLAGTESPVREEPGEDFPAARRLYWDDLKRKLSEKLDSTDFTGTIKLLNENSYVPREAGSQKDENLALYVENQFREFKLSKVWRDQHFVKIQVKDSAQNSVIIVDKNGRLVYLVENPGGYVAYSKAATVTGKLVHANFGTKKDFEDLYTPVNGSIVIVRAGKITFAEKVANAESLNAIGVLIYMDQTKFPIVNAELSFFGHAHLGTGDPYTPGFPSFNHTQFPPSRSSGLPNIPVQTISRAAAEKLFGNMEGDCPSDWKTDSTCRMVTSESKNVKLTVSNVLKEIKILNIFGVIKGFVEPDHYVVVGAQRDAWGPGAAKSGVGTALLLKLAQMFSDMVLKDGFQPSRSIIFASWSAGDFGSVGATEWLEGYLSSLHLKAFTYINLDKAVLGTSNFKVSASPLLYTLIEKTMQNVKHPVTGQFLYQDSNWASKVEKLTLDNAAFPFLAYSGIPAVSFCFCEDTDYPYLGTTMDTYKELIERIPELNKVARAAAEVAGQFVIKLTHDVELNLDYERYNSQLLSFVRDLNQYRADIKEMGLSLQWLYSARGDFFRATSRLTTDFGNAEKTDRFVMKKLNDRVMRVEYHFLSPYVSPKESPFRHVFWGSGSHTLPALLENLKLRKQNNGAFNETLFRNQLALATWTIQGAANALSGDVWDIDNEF
Experiment: Intermolecular interaction evaluation test between transferrin receptor (hTfR) and peptide by surface plasmon resonance (SPR)
Format: binding
Outline: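 hTfR captured on Ni-NTA chip then amine-coupled; peptides run single-cycle kinetics at 5–100 nM in 10 mM HEPES pH 8.0, 150 mM NaCl, 0.05% Tween 20, 0.1% BSA, 1.0% DMSO. KD from least-squares curve fitting of sensorgrams.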

[1] = surface plasmon resonance, hTfR, read-out: KD value for hTfR by SPR (class symbol)
[2] = hTfR binding by SPR, hTfR No. 894 variant peptides, linker-added peptides and payload conjugates (Table 2), read-out: KD value obtained from the SPR measurement
[3] = SPR, peptides, linker-added peptides and FITC conjugates, Patent ID 203-230, read-out: KD
[4] = binding to hTfR by SPR, Table 2 peptides, read-out: KD value (SPR) class

Kd (SPR, hTfR, class symbols A-D, read-out: KD (column without head, continuation of the table series)): 0.001 to 0.1 µM
Compound: CC[C@H](C)[C@@H]1NC(=O)[C@H](Cc2ccc(O)cc2)NC(=O)[C@H](Cc2ccc(O)cc2)NC(=O)[C@H](CC(N)=O)NC(=O)[C@H](Cc2c[nH]c3ccccc23)NC(=O)[C@H](C(C)C)NC(=O)[C@H](Cc2ccccc2)N(C)C(=O)[C@H](C(C)C)NC(=O)[C@H](C)NC(=O)CSC[C@@H](C(=O)NCC(=O)N[C@@H](CCCCN)C(N)=O)NC(=O)[C@H](Cc2ccc(O)cc2)N(C)C(=O)[C@H](Cc2ccc(O)cc2)NC(=O)[C@H](CCCNC(=N)N)NC(=O)[C@H](CCCCN)NC(=O)[C@H]([C@@H](C)CC)NC1=O [compound 526]

Kd [1]: 0.001 to 0.1 µM
Compound: CC[C@H](C)[C@@H]1NC(=O)[C@H](Cc2ccc(OC)cc2)NC(=O)[C@H](Cc2ccc(O)cc2)NC(=O)[C@H](CC(N)=O)NC(=O)[C@H](Cc2c[nH]c3ccccc23)N(C)C(=O)[C@H](C(C)C)NC(=O)[C@H](Cc2cccc(Cl)c2)N(C)C(=O)[C@H](C(C)C)NC(=O)[C@H](C)NC(=O)CSC[C@H](C(N)=O)NC(=O)[C@H](Cc2ccc(O)cc2)N(C)C(=O)[C@H](Cc2ccccc2)NC(=O)[C@@H](CCCNC(=N)N)NC(=O)[C@H](CCCNC(=N)N)NC(=O)[C@H]([C@@H](C)CC)NC1=O [compound 396]

Kd [1]: 0.001 to 0.1 µM
Compound: CC[C@H](C)[C@@H]1NC(=O)[C@H](Cc2ccc(OC)cc2)NC(=O)[C@H](Cc2ccc(O)cc2)NC(=O)[C@H](CC(N)=O)NC(=O)[C@H](Cc2c[nH]c3ccccc23)N(C)C(=O)[C@H](C(C)C)NC(=O)[C@H](Cc2cccc(Cl)c2)N(C)C(=O)[C@H](C(C)C)NC(=O)[C@H](C)NC(=O)CSC[C@@H](C(N)=O)NC(=O)[C@H](Cc2ccc(O)cc2)N(C)C(=O)[C@H](Cc2ccccc2)NC(=O)[C@@H](CCCNC(=N)N)NC(=O)[C@H](CCC(=O)NCCOCCOCCOCCOCCOCCOCCOCCOC)NC(=O)[C@H]([C@@H](C)CC)NC1=O [compound 363]

Kd [1]: 0.001 to 0.1 µM
Compound: CC[C@H](C)[C@@H]1NC(=O)[C@H](Cc2ccc(OC)cc2)NC(=O)[C@H](Cc2ccc(O)cc2)NC(=O)[C@H](CC(N)=O)NC(=O)[C@H](Cc2c[nH]c3ccccc23)N(C)C(=O)[C@H](C(C)C)NC(=O)[C@H](Cc2cccc(Cl)c2)N(C)C(=O)[C@H](C(C)C)NC(=O)[C@H](C)NC(=O)CSC[C@@H](C(=O)N[C@H](CCC(=O)O)C(=O)N(C)CC(=O)N[C@H](CCC(=O)O)C(N)=O)NC(=O)[C@H](Cc2ccc(O)cc2)N(C)C(=O)[C@H](Cc2ccccc2)NC(=O)[C@@H](CCCNC(=N)N)NC(=O)C(C)(C)NC(=O)[C@H]([C@@H](C)CC)NC1=O [compound 357]

Kd [4]: 0.001 to 0.1 µM
Compound: CC[C@H](C)[C@@H]1NC(=O)[C@H](Cc2ccc(O)cc2)NC(=O)[C@H](Cc2ccc(O)cc2)NC(=O)[C@H](CC(N)=O)NC(=O)[C@H](Cc2c[nH]c3ccc(F)cc23)NC(=O)[C@H](C(C)C)NC(=O)[C@H](Cc2ccccc2)N(C)C(=O)[C@H](C(C)C)NC(=O)[C@H](C)NC(=O)CSC[C@@H](C(N)=O)NC(=O)[C@H](Cc2ccc(O)cc2)N(C)C(=O)[C@H](Cc2ccc(O)cc2)NC(=O)[C@H](CCCNC(=N)N)NC(=O)[C@H](CCCNC(=N)N)NC(=O)[C@H]([C@@H](C)CC)NC1=O [compound 269]

Kd (SPR, hTfR, class symbols A-D, read-out: KD): 0.001 to 0.1 µM
Compound: CC[C@H](C)[C@@H]1NC(=O)[C@H](Cc2ccc(OC)cc2)NC(=O)[C@H](Cc2ccc(O)cc2)NC(=O)[C@H](CC(N)=O)NC(=O)[C@H](Cc2c[nH]c3ccccc23)N(C)C(=O)[C@H](C(C)C)NC(=O)[C@H](Cc2cccc(Cl)c2)N(C)C(=O)[C@H](C(C)C)NC(=O)[C@H](C)NC(=O)CSC[C@@H](C(N)=O)NC(=O)[C@H](Cc2ccc(O)cc2)N(C)C(=O)[C@H](Cc2cccnc2)NC(=O)[C@@H](CCCNC(=N)N)NC(=O)[C@H](CCCNC(=N)N)NC(=O)[C@H]([C@@H](C)CC)NC1=O [compound 460]

Kd [4]: 0.001 to 0.1 µM
Compound: CC[C@H](C)[C@@H]1NC(=O)[C@H](Cc2ccc(O)cc2)NC(=O)[C@H](Cc2ccc(O)cc2)NC(=O)[C@H](CC(N)=O)NC(=O)[C@H](Cc2c[nH]c3cc(F)ccc23)NC(=O)[C@H](C(C)C)NC(=O)[C@H](Cc2ccccc2)N(C)C(=O)[C@H](C(C)C)NC(=O)[C@H](C)NC(=O)CSC[C@@H](C(N)=O)NC(=O)[C@H](Cc2ccc(O)cc2)N(C)C(=O)[C@H](Cc2ccc(O)cc2)NC(=O)[C@H](CCCNC(=N)N)NC(=O)[C@H](CCCNC(=N)N)NC(=O)[C@H]([C@@H](C)CC)NC1=O [compound 270]

Kd [4]: 0.001 to 0.1 µM
Compound: CC[C@H](C)[C@@H]1NC(=O)[C@H](Cc2ccc(O)cc2)NC(=O)[C@H](Cc2ccc(O)cc2)NC(=O)[C@H](CC(N)=O)NC(=O)[C@H](Cc2c[nH]c3ccccc23)NC(=O)[C@H](C(C)C)NC(=O)[C@H](Cc2ccccc2)NC(=O)[C@H](C(C)C)NC(=O)[C@H](C)NC(=O)CSC[C@@H](C(N)=O)NC(=O)[C@H](Cc2ccc(O)cc2)N(C)C(=O)[C@H](Cc2ccc(O)cc2)NC(=O)[C@H](C)NC(=O)[C@H](CCCNC(=N)N)NC(=O)[C@H]([C@@H](C)CC)NC1=O [compound 256]

The remaining lines, values behind:

Compound: hTfRNo.894FLIP-vivotag750: control: cyclic peptide with inverted No. 894 sequence (SEQ ID NO: 202) bound to VivoTag 750 via PEG11 linker ({CH2CO}-A[NMeY]YRRIIYYNWVFVC-{PEG11′-VivoTag750}; thioether N-15 (inferred); not fully specified; printed as ClAc-Ala-MeTyr-Tyr-Arg-Arg-Ile-Ile-Tyr-Tyr-Asn-Trp-Val-Phe-Val-Cys) [reference compound]
hTfR binding ability (SPR, result in words): no binding to hTfR was recognized

Compound: CC[C@H](C)[C@@H]1NC(=O)[C@H](Cc2ccc(O)cc2)NC(=O)[C@H](Cc2ccc(O)cc2)NC(=O)[C@H](CC(N)=O)NC(=O)[C@H](Cc2c[nH]c3ccccc23)NC(=O)[C@H](C(C)C)NC(=O)[C@H](Cc2ccccc2)N(C)C(=O)[C@H](C(C)C)NC(=O)[C@H](C)NC(=O)CSC[C@@H](C(=O)NCC(=O)N[C@@H](CCCCNC(=O)C2CCC(CN3C(=O)C=CC3=O)CC2)C(N)=O)NC(=O)[C@H](Cc2ccc(O)cc2)N(C)C(=O)[C@H](Cc2ccc(O)cc2)NC(=O)[C@H](CCCNC(=N)N)NC(=O)[C@H](CCCNC(=N)N)NC(=O)[C@H]([C@@H](C)CC)NC1=O (stereo partly drawn) [compound 188]
Kd [2]: 0.001 to 0.1 µM

Compound: CC[C@H](C)[C@@H]1NC(=O)[C@H](Cc2ccccc2)NC(=O)[C@H](Cc2ccc(O)cc2)NC(=O)[C@H](CC(N)=O)NC(=O)[C@H](Cc2c[nH]c3ccccc23)NC(=O)[C@H](C(C)C)NC(=O)[C@H](Cc2c[nH]c3ccccc23)NC(=O)[C@H](C(C)C)NC(=O)[C@H](C)NC(=O)CSC[C@@H](C(=O)NCCOCCOCCOCCOCCOCCOCCOCCOCCOCCOCCOCCOCCC(=O)N[C@@H](CCCCNC(=O)c2ccc(-c3c4ccc(=O)cc-4oc4cc(O)ccc34)c(C(=O)O)c2)C(N)=O)NC(=O)[C@H](Cc2c[nH]cn2)NC(=O)[C@H](CCCNC(=N)N)NC(=O)[C@@H]2CCCN2C(=O)[C@H]([C@@H](C)CC)NC1=O [compound 208] ({CH2CO}-AVWVWNYFIIPRHC[PEG12]K(X2)-NH2; thioether N-14)
Kd [3]: 0.001 to 0.1 µM

Compound: CC[C@H](C)[C@@H]1NC(=O)[C@H](Cc2ccc(O)cc2)NC(=O)[C@H](Cc2ccc(O)cc2)NC(=O)[C@H](CC(N)=O)NC(=O)[C@H](Cc2c[nH]c3ccccc23)N(C)C(=O)[C@H](C(C)C)NC(=O)[C@H](Cc2ccccc2)N(C)C(=O)[C@H](C(C)C)NC(=O)[C@H](C)NC(=O)CSC[C@@H](C(=O)NCC(=O)NCC(=O)N[C@@H](CCCNC(=N)N)C(=O)NCC(=O)N[C@@H](CCCNC(=N)N)C(=O)N[C@@H](CO)C(=O)N[C@@H](CCCCNC(=O)C2CCC(CN3C(=O)C=CC3=O)CC2)C(N)=O)NC(=O)[C@H](Cc2ccc(O)cc2)N(C)C(=O)[C@H](Cc2ccc(O)cc2)NC(=O)[C@H](CCCNC(=N)N)NC(=O)[C@H](CCCNC(=N)N)NC(=O)[C@H]([C@@H](C)CC)NC1=O (stereo partly drawn) [compound 198]
Kd [2]: 0.001 to 0.1 µM

Compound: CC[C@H](C)[C@@H]1NC(=O)[C@H](Cc2ccc(OC)cc2)NC(=O)[C@H](Cc2ccc(O)cc2)NC(=O)[C@H](CC(N)=O)NC(=O)[C@H](Cc2c[nH]c3ccccc23)N(C)C(=O)[C@H](C(C)C)NC(=O)[C@H](Cc2cccc(Cl)c2)N(C)C(=O)[C@H](C(C)C)NC(=O)[C@H](C)NC(=O)CSC[C@@H](C(=O)NCC(=O)NCC(=O)NCC(=O)NCC(=O)N[C@@H](CO)C(=O)N[C@@H](CO)C(=O)N[C@@H](CS)C(N)=O)NC(=O)[C@H](Cc2ccc(O)cc2)N(C)C(=O)[C@H](Cc2ccccc2)NC(=O)[C@@H](CCCNC(=N)N)NC(=O)[C@H](CCCNC(=N)N)NC(=O)[C@H](CCCCCN)NC1=O [compound 341]
Kd: 0.001 to 0.1 µM

Compound: CC[C@H](C)[C@@H]1NC(=O)[C@H](Cc2ccc(OC)cc2)NC(=O)[C@H](Cc2ccc(O)cc2)NC(=O)[C@H](CC(N)=O)NC(=O)[C@H](Cc2c[nH]c3ccccc23)N(C)C(=O)[C@H](C(C)C)NC(=O)[C@H](Cc2cccc(Cl)c2)N(C)C(=O)[C@H](CCC(=O)O)NC(=O)[C@H](C)NC(=O)CSC[C@@H](C(=O)N[C@H](CCC(=O)O)C(=O)NCC(=O)NCC(=O)NCC(=O)N[C@@H](CO)C(=O)N[C@@H](CO)C(=O)N[C@@H](CS)C(N)=O)NC(=O)[C@H](Cc2ccc(O)cc2)N(C)C(=O)[C@H](Cc2ccccc2)NC(=O)[C@@H](CCCNC(=N)N)NC(=O)[C@H](CCCCN)NC(=O)[C@H]([C@@H](C)CC)NC1=O [compound 230] ({CH2CO}-AE[NMePhe(3-Cl)]V[NMeW]NYY(Me)IIK[dR]F[NMeY]C[dE]GGGSSC-NH2; thioether N-15)
Kd [3]: 0.001 to 0.1 µM

Compound: CC[C@H](C)[C@@H]1NC(=O)[C@H](Cc2ccc(O)cc2)NC(=O)[C@H](Cc2ccc(O)cc2)NC(=O)[C@H](CC(N)=O)NC(=O)[C@H](Cc2c[nH]c3ccccc23)NC(=O)[C@H](C(C)C)NC(=O)[C@H](Cc2ccccc2)NC(=O)[C@H](CCCCN)NC(=O)[C@H](C)NC(=O)CSC[C@@H](C(N)=O)NC(=O)[C@H](Cc2ccc(O)cc2)N(C)C(=O)[C@H](Cc2ccc(O)cc2)NC(=O)[C@H](CCCNC(=N)N)NC(=O)[C@H](CCCNC(=N)N)NC(=O)[C@H]([C@@H](C)CC)NC1=O [compound 238]
Kd [4]: 0.001 to 0.1 µM

Reference: patent US20230203098A1, “HUMAN TRANSFERRIN RECEPTOR BINDING PEPTIDE” (priority 2020, published 2023)
